Melting point data for 56 compounds are collected here from patent publication US7166598B2, “Piperazine derivatives” (Astellas Pharma Inc., priority 1998, dated 2007).

A word on the melting point: it is the temperature of the solid-liquid transition.

The compound `Cc1ccc(C[C@@H]2CN(CCN3[C@H](C)COC[C@@H]3C)CCN2C(=O)c2cc(C(F)(F)F)cc(C(F)(F)F)c2)cc1O.Cl.Cl` yielded a melting point of 210 to 220 °C.
As for `Cl.Cl.Cl.O=C(c1cc(C(F)(F)F)cc(C(F)(F)F)c1)N1CCN(CCN2CCc3ncccc3C2)C[C@H]1Cc1ccc(C(F)(F)F)cc1`, the melting point lay in the range of 174 to 180 °C.
Consider `COc1cc(C(=O)N2CCN(CCN3C[C@@H](C)O[C@@H](C)C3)C[C@H]2Cc2ccc(F)cc2)cc(C(F)(F)F)c1.Cl.Cl`, for which the melting point was in the range of 70.3 to 85.2 °C.
`COC[C@@H]1CN(CCN2CCN(C(=O)c3cc(F)cc(C(F)(F)F)c3)[C@H](Cc3ccc(C(F)(F)F)cc3)C2)CCO1.Cl.Cl` registered a melting point of 173 to 176 °C.
For `Cl.Cl.O=C(c1cc(C(F)(F)F)cc(C(F)(F)F)c1)N1CCN(CCCc2cccnc2)C[C@H]1Cc1ccc(Cl)c(O)c1` the value was 65 to 70 °C; for `COc1cc(C[C@@H]2CN(CC#CCN3CCOCC3(C)C)CCN2C(=O)c2cc(C(F)(F)F)cc(C(F)(F)F)c2)ccc1F.Cl.Cl`, 125 to 130 °C; for `COC[C@@H]1CN(CCN2CCN(C(=O)c3cc(C(F)(F)F)cc(C(F)(F)F)c3)[C@H](Cc3ccc(C)c(O)c3)C2)CCO1.Cl.Cl` [Example 5-(1)], 207 to 210 °C.
For the compound `COC[C@@H]1C[C@@H](OC)CN1CCN1CCN(C(=O)c2cc(C(F)(F)F)cc(C(F)(F)F)c2)[C@H](Cc2ccc(C(F)(F)F)cc2)C1.Cl.Cl`, the melting point was 56.59 °C.
The value for `Cl.Cn1cc(CN2CCN(C(=O)c3cc(C(F)(F)F)cc(C(F)(F)F)c3)[C@H](Cc3ccc(Cl)cc3)C2)cn1` was 210 to 245 °C (dec.); that for `COC[C@@H]1CN(CCN2CCN(C(=O)c3cc(-c4ccncc4)cc(C(F)(F)F)c3)[C@H](Cc3ccc(C(F)(F)F)cc3)C2)CCO1.Cl.Cl.Cl` was 81 to 91 °C; that for `Cl.Cn1cc(CN2CCN(C(=O)c3cc(C(F)(F)F)cc(C(F)(F)F)c3)[C@H](Cc3ccc(F)c(O)c3)C2)cn1` was 160 to 170 °C.
Consider `Cl.Cl.O=C(c1cc(C(F)(F)F)cc(C(F)(F)F)c1)N1CCN(CCCc2cccnc2)C[C@H]1Cc1ccc(Cl)cc1`, for which the melting point is 60 to 100 °C.
For `CS(=O)(=O)c1cc(C(=O)N2CCN(CCN3CCc4ncccc4C3)C[C@H]2Cc2ccc(C(F)(F)F)cc2)cc(C(F)(F)F)c1.Cl.Cl.Cl` the value was 192 to 197 °C; for `COc1cc(C(=O)N2CCN(Cc3cnn(C)c3)C[C@H]2Cc2ccc3ccccc3c2)cc(C(F)(F)F)c1.Cl`, 226 to 228 °C; for `COc1cc(C(=O)N2CCN(Cc3cnn(C)c3)C[C@H]2Cc2ccc(C(F)(F)F)cc2)cc(C(F)(F)F)c1.Cl`, 218 to 223 °C.
Turning to `COc1cc(C[C@@H]2CN(CCN3CCC[C@H]3CO)CCN2C(=O)c2cc(C(F)(F)F)cc(C(F)(F)F)c2)ccc1F.Cl.Cl`, the melting point is 198 to 201 °C.
In the case of `Cl.Cl.Cl.O=C(c1cc(C(F)(F)F)cc(C(F)(F)F)c1)N1CCN(CCN2CCc3ncccc3C2)C[C@H]1Cc1ccc(F)cc1`, the melting point is 155.5 to 170.1 °C.
The value for `COC[C@H]1CCC[C@@H](COC)N1CCN1CCN(C(=O)c2cc(C(F)(F)F)cc(C(F)(F)F)c2)[C@H](Cc2ccc(C(F)(F)F)cc2)C1.Cl.Cl` was 147 to 151 °C; that for `COc1cc(C(=O)N2CCN(CCN3CCc4ncccc4C3)C[C@H]2Cc2ccc(Cl)c(O)c2)cc(C(F)(F)F)c1.Cl.Cl.Cl` was 225 to 240 °C (dec.); that for `COc1cc(C(=O)N2CCN(CCN3C[C@@H](C)O[C@@H](C)C3)C[C@H]2Cc2c[nH]c3ccccc23)cc(C(F)(F)F)c1.Cl.Cl` was 188 to 200 °C.
For the compound `COC[C@@H]1CN(CCN2CCN(C(=O)c3cc(OC)cc(C(F)(F)F)c3)[C@H](Cc3ccc(C(F)(F)F)c(OC)c3)C2)CCO1.Cl.Cl`, the melting point lay within 135 to 140 °C.
On to `C[C@@H]1CN(CCN2CCN(C(=O)c3cc(C(F)(F)F)cc(C(F)(F)F)c3)[C@H](Cc3ccc(F)c(F)c3)C2)C[C@H](C)O1.Cl.Cl`, for which the melting point is 223 to 228 °C.
Turning to `COC[C@@H]1CN(CCN2CCN(C(=O)c3cc(C(F)(F)F)cc(C(F)(F)F)c3)[C@H](Cc3ccc4ccccc4c3)C2)CCO1.Cl.Cl`, the melting point is 145 to 148 °C.
`Cc1ccc(C[C@@H]2CN(Cc3csc(N(C)C)n3)CCN2C(=O)c2cc(C(F)(F)F)cc(C(F)(F)F)c2)cc1O.Cl.Cl`: the melting point lay within 162 to 165 °C.
Consider `COc1cc(C(=O)N2CCN(CCN3CCc4ncccc4C3)C[C@H]2Cc2ccc(Cl)cc2)cc(C(F)(F)F)c1.Cl.Cl.Cl`, for which the melting point is 140 to 170 °C.
For the compound `C[C@@H]1CN(CCN2CCN(C(=O)c3cc(C(F)(F)F)cc(C(F)(F)F)c3)[C@H](Cc3ccc(C(F)(F)F)cc3)C2)C[C@H](C)O1.Cl.Cl`, the melting point lay in the range of 148 to 159 °C.
The value for `COc1cc(C(=O)N2CCN(CCN3C[C@@H](C)O[C@@H](C)C3)C[C@H]2Cc2ccc3ccccc3c2)cc(C(F)(F)F)c1.Cl.Cl` was 188 to 193 °C.
For `C[C@@H]1CN(CCN2CCN(C(=O)c3cc(Cl)cc(Cl)c3)[C@H](Cc3ccc(Cl)cc3)C2)C[C@H](C)O1.Cl.Cl`, the melting point lay within 140.1 to 143.8 °C.
Compound `Cl.Cl.O=C(c1cc(C(F)(F)F)cc(C(F)(F)F)c1)N1CCN(CCN2CCC(F)(F)CC2)C[C@H]1Cc1ccc(F)c(O)c1` came in with a melting point of 190 to 200 °C.
Compound `COC[C@@H]1C[C@@H](OC)CN1CCN1CCN(C(=O)c2cc(C(F)(F)F)cc(C(F)(F)F)c2)[C@H](Cc2ccc(Cl)c(O)c2)C1.Cl.Cl` returned a melting point of 95 to 105 °C.
The compound `COC[C@@H]1CN(CCN2CCN(C(=O)c3cc(SC)cc(C(F)(F)F)c3)[C@H](Cc3ccc(C(F)(F)F)cc3)C2)CCO1.Cl.Cl` registered a melting point of 153 to 170 °C.
The compound `COc1cc(C[C@@H]2CN(Cc3cccnc3)CCN2C(=O)c2cc(C(F)(F)F)cc(C(F)(F)F)c2)ccc1F.Cl.Cl` had a melting point of 143 to 147 °C.
The compound `COc1cc(C[C@@H]2CN(CCN3CCc4ncccc4C3)CCN2C(=O)c2cc(-c3ccncc3)cc(C(F)(F)F)c2)ccc1F.Cl.Cl.Cl.Cl` had a melting point of 236.8 to 248.5 °C.
For `Cl.Cl.Cl.O=C(c1cc(Cl)cc(C(F)(F)F)c1)N1CCN(CCN2CCc3ncccc3C2)C[C@H]1Cc1ccc(Cl)cc1`, the melting point was 130.6 to 135.7 °C.
With `CC1(C)CN(CCN2CCN(C(=O)c3cc(C(F)(F)F)cc(C(F)(F)F)c3)[C@H](Cc3ccc(C(F)(F)F)cc3)C2)CCO1.Cl.Cl`, the melting point lay in the range of 215 to 231 °C.
With `CC1(C)COCCN1CC#CCN1CCN(C(=O)c2cc(C(F)(F)F)cc(C(F)(F)F)c2)[C@H](Cc2ccc(F)c(O)c2)C1.Cl.Cl`, the melting point fell in the range of 180 to 184 °C.
The value for `COC[C@@H]1CN(CCN2CCN(C(=O)c3cc(SC)cc(C(F)(F)F)c3)[C@H](Cc3ccc(Cl)cc3)C2)CCO1.Cl.Cl` was 140 to 146 °C; that for `COC[C@@H]1CN(CCN2CCN(C(=O)c3cc(C(F)(F)F)cc(S(=O)(=O)N(C)C)c3)[C@H](Cc3ccc(C)c(O)c3)C2)CCO1.Cl.Cl` was 153.5 to 160 °C.
For `Cc1ccc(C[C@@H]2CN(Cc3cnn(C)c3)CCN2C(=O)c2cc(C(F)(F)F)cc(C(F)(F)F)c2)cc1O.Cl`, the melting point was in the range of 160 to 180 °C.
For the compound `Cl.Cl.O=C(c1cc(C(F)(F)F)cc(C(F)(F)F)c1)N1CCN(Cc2cccnc2)C[C@H]1Cc1ccc(Cl)c(O)c1`, the melting point fell in the range of 187 to 192 °C.
`COc1cc(C(=O)N2CCN(CC#CCN3CCOCC3(C)C)C[C@H]2Cc2c[nH]c3ccccc23)cc(C(F)(F)F)c1.Cl.Cl` had a melting point of 190 to 200 °C.
In turn, `COC[C@@H]1CN(CCN2CCN(C(=O)c3cc(C)cc(C(F)(F)F)c3)[C@H](Cc3ccc(Cl)cc3)C2)CCO1.Cl.Cl` gave a melting point of 148 to 151 °C.
For `Cl.Cl.O=C(c1cc(C(F)(F)F)cc(C(F)(F)F)c1)N1CCN(Cc2c[nH]c3cccnc23)C[C@H]1Cc1ccc(Cl)c(O)c1` the value was 208 to 211 °C.
In the case of `COc1cc(C(=O)N2CCN(Cc3cnn(C)c3)C[C@H]2Cc2ccc(Cl)c(O)c2)cc(C(F)(F)F)c1.Cl`, the melting point was 140 to 150 °C.
For `C[C@@H]1CN(CCN2CCN(C(=O)c3cc(Cl)cc(C(F)(F)F)c3)[C@H](Cc3ccc(Cl)c(O)c3)C2)C[C@H](C)O1.Cl.Cl` the value was 196 to 199 °C; for `Cl.Cl.O=C(c1cc(C(F)(F)F)cc(C(F)(F)F)c1)N1CCN(CCN2[C@H](CO)CCC[C@@H]2CO)C[C@H]1Cc1ccc(C(F)(F)F)cc1`, 164 to 167 °C.
Compound `COc1cc(C[C@@H]2CN(CCN3C[C@@H](C)O[C@@H](C)C3)CCN2C(=O)c2cc(-c3ccncc3)cc(C(F)(F)F)c2)ccc1F.Cl.Cl.Cl` showed a melting point of 137.6 to 142.5 °C.
For the compound `Cl.Cl.O=C(c1cc(C(F)(F)F)cc(C(F)(F)F)c1)N1CCN(CCN2CCC(F)(F)CC2)C[C@H]1Cc1ccc(Cl)cc1`, the melting point is 250 to 255 °C.
The value for `COC[C@@H]1CN(CCN2CCN(C(=O)c3cc(C(F)(F)F)cc(C(F)(F)F)c3)[C@H](Cc3ccc(C(C)C)c(O)c3)C2)CCO1.Cl.Cl` was 218 to 228 °C.
For `Cc1ccc(C[C@@H]2CN(CCN3CCc4ncccc4C3)CCN2C(=O)c2cc(C(F)(F)F)cc(C(F)(F)F)c2)cc1O.Cl.Cl.Cl`, the melting point is 255 to 270 °C.
As to `Cl.Cl.Cl.O=C(c1cc(F)cc(C(F)(F)F)c1)N1CCN(CCN2CCc3ncccc3C2)C[C@H]1Cc1ccc(Cl)cc1`, the melting point is 127.3 to 130.9 °C.
For `COc1cc(C[C@@H]2CN(CCN3C[C@@H](C)O[C@@H](C)C3)CCN2C(=O)c2cc(C(F)(F)F)cc(C(F)(F)F)c2)ccc1F.Cl.Cl` the value was 205 to 208 °C; for `C[C@@H]1CN(CCN2CCN(C(=O)c3cc(Cl)cc(C(F)(F)F)c3)[C@H](Cc3ccc(Cl)cc3)C2)C[C@H](C)O1.Cl.Cl`, 136.4 to 141 °C; for `C[C@@H]1CN(CCN2CCN(C(=O)c3cc(-n4cccc4)cc(C(F)(F)F)c3)[C@H](Cc3ccc(Cl)cc3)C2)C[C@H](C)O1.Cl.Cl`, 152.7 to 157.9 °C.
For `COc1cc(C(=O)N2CCN(CCCc3cccnc3)C[C@H]2Cc2ccc(C(F)(F)F)cc2)cc(C(F)(F)F)c1.Cl.Cl`, the melting point fell in the range of 70 to 80 °C.
For `COc1cc(C(=O)N2CCN(CCN3C[C@@H](C)O[C@@H](C)C3)C[C@H]2Cc2ccc(C(F)(F)F)cc2)cc(C(F)(F)F)c1.Cl.Cl`, the melting point is 139 to 151 °C.
